Consider 9 compounds from patent US20220016196A1, “Aloe Based Compositions Comprising Polysaccharides and Polyphenols for Regulation of Homeostasis of Immunity” (Unigen, Inc., priority 2020, published 2022).

Series [1] has as its system HMGB1. The series is described as follows: Inhibition of hyperoxia-induced HMGB1 release from macrophages (ELISA). The series is classed as cell-based, mouse. As to conditions: RAW 264.7 cells, 95% O2 24 hours, test substance 25 μg/mL, ELISA of supernatant. The procedure: Macrophages cultured under hyperoxic conditions experience oxidative stress, causing them to secrete HMGB1 to the cell culture media. To determine the efficacy of the Aloe-based composition and its components in reducing the accumulation of extracellular HMGB1 of cultured macrophages, RAW 264.7 cells were exposed for 24 hours to either 21% O2 (room air (RA)), or 95% O2 in the presence or absence of test substance at 25 μg/mL concentration. HMGB1 levels in cell culture supernatants were determined by ELISA at a single concentration of test substance in duplicate. The data are expressed as mean±SEM of one experiment assayed in duplicate. *p<0.05, **p<0.01, ****p<0.0001 compared to macrophages treated under hyperoxia with vehicle only. Control cells were treated with Sodium Salicylate (SS) as a positive control, which attenuates hyperoxia-compromised macrophage function and oxidative-stress-induced HMGB 1 release.

Series [2] has as its system Pseudomonas aeruginosa (PA) infected hyperoxic mice. The series is described as follows: Hyperoxia-induced mortality in Pseudomonas aeruginosa (PA)-infected mice. The series is classed as in vivo, mouse.
Series [3] relates to Pseudomonas aeruginosa. The series is described as follows: Bacterial clearance in the airways in hyperoxic and PA infected mice. It counts as in vivo, mouse. The settings on record: 24 hours after infection.
Series [4] deals with hyperoxic and PA infected mice. Nature of the series: Oxidative stress-exacerbated acute lung injury induced by bacterial infection (BAL total protein, biomarkers, histology). The series is classed as in vivo, mouse. The settings on record: hyperoxia + PA infected mice, Resveratrol 50 mg/kg.
Series [5] has as its target phospholipase A2. The settings on record: phospholipase A2 from snake venom (Cuéllar et al 1996); cited from earlier work.
For series [6] the following is noted: DPPH assay, 100 mg/L (Hu et al., 2003); cited from earlier work.
The test system of series [7] is acute ear edema induced by tetradecanoyl phorbol acetate (TPA). The settings on record: acute ear edema induced by TPA (Cuellar et al 1997); cited from earlier work.
Series [8] has as its system HaCaT cells. Nature of the series: UVA&UVB induced ROS assay in HaCaT cell. As to conditions: positive control, 40 μg/mL. The series is classed as cell-based, human. How it is done:
HaCaT cells (Human immortal keratinocyte cells) were seeded at a density of 8,000 cells/well in 96-well tissue culture plates and treated for 24 hours with test substance at 25 μg/mL. […] DCFH-DA (a fluorescent probe) was added to cells to detect ROS production and incubated at 37° C. for 25 minutes. After exposure to UV irradiation under the solar simulator (Sol-UV-6 Solar Simulator) with ultraviolet filter for 10 minutes, the fluorescence value was measured at 488 nm (excitation) and 525 nm (emission) by Multimode Reader. […] Organic extracts (OE) were tested at 50 μg/mL, while aqueous extracts were tested at 100 μg/mL. Fractions or pure compounds were tested at 25 μg/mL in this assay.

Series [9] deals with RAW 264.7 cells. Nature of the series: Hyperoxia-induced dysfunctional macrophage phagocytosis assay. The series is classed as cell-based, mouse. The settings on record: RAW 264.7, 95% O2 24 hours, beads per cell as percent increase.
Protocol: RAW 264.7 cells either remained at room air (21% O2) or were exposed to 95% O2 for 24 hours in the presence of test substance. Cells were then incubated with FITC-labeled latex mini-beads for 1 hour and stained with phalloidin and DAPI to visualize the actin cytoskeleton and nuclei, respectively. For quantification of phagocytic activity, at least 200 cells per group were counted and the numbers of beads per cell were represented as a percent increase compared to the 21% 02 (0 μg/ml) control group. Each value represents the mean±SEM of 3 independent experiments for each group, in duplicate. *, P<0.05 compared to the 21% O2 (0 μg/ml) control group.
Series [10] deals with HaCaT cells. The series is described as follows: Cytotoxicity (CCK viability) in HaCaT cells. It counts as cell-based, human. The settings on record: 25 μg/mL. How it is done: HaCaT cells (Human immortal keratinocyte cells) were seeded at a density of 8,000 cells/well in 96-well tissue culture plates and treated for 24 hours with test substance at 25 μg/mL. Cytotoxicity was evaluated to remove false positives (CCK >80% viability). DCFH-DA (a fluorescent probe) was added to cells to detect ROS production and incubated at 37° C. for 25 minutes. After exposure to UV irradiation under the solar simulator (Sol-UV-6 Solar Simulator) with ultraviolet filter for 10 minutes, the fluorescence value was measured at 488 nm (excitation) and 525 nm (emission) by Multimode Reader. Vitamin C was used as positive control treated at 40 μg/mL with 43% reduction of ROS production. At 25 μg/mL, Rosmarinic acid decreased ROS generation by 24%, compared to the level of UV exposed HaCaT cells. Organic extracts (OE) were tested at 50 μg/mL, while aqueous extracts were tested at 100 μg/mL. Fractions or pure compounds were tested at 25 μg/mL in this assay.

The subject of series [11] is RAW 264.7 cells. Nature of the series: MTT assay in cultured RAW 264.7 cells under hyperoxia. It counts as cell-based, mouse. The settings on record: RAW 264.7, 95% O2 24 hours. How it is done: Cell viability was determined by MTT assay.
Series [12] relates to HSF cells (Human fibroblasts). Nature of the series: DNA damage of human fibroblasts induced by hydrogen peroxide (γH2AX). It counts as cell-based. The settings on record: γH2AX staining, H2O2 1 mM 4 h. How it is done:
HSF cells (Human fibroblasts) were seeded in 96-well tissue culture plates and incubated at 37° C. and in 5% CO2 and 95% air with test substances. Treated HSF cells were subjected to DNA damage by incubating with H2O2 at a concentration of 1 mM for 4 h, then immunostained for γH2AX, a phosphorylated histone that is a marker of DNA double strand breaks. DAPI was used to stain the cell nucleus. Pictures taken by Image Xpress and analyzed with Meta Xpress. Catechin (100 μg/ml) was used as positive control with 70% reduction of DNA damage, as assessed by quantification of γH2AX staining. […]. Rosmarinic acid reduced DNA damage by 24% at 25 μg/mL.

For the compound `CC(=O)Cc1cc(=O)c2c(C)cc(O)c([C@@H]3O[C@H](CO)[C@@H](O)[C@H](O)[C@H]3O)c2o1` [Aloesin], the HMGB1 inhibition in [1] amounted to 52.47.
On to `Oc1ccc(C=Cc2cc(O)cc(O)c2)cc1` [resveratrol], for which, in series [2] (7 days prophylactic treatment, hyperoxia 2 days, PA inoculated, 24 hours post-inoculation), the mortality rate was found to be 27%. Moreover, the Dead animals in series [2] (RES 50 mg/kg, hyperoxia + PA inoculation, 11 total animals) is on record as 3. For the same compound, the Mortality % in series [2] (RES 50 mg/kg, hyperoxia + PA inoculation, 24 hours post-inoculation) is given as 27.27%. Further, the “Bacterial load in the airways, ×10^5 CFU/mL (Mean ± SE)” value in [3] (RES 50 mg/kg, hyperoxic and PA infected mice) was 2.4 ± 0.7 ×10^5 CFU/mL. Further, the “bacterial load in the airways vs hyperoxia + vehicle (O2)” value in series [3] (UP360 500 mg/kg, Resveratrol 50 mg/kg oral, >99% O2 48 hours, PA intranasal) is reported as “airway bacterial load was significantly lower”. The lung injury result in [4] is “significantly reduce lung injury”.
For `C=C(CC[C@@H](C(=O)O)[C@H]1[C@H](O)C[C@@]2(C)C3=CC[C@H]4C(C)(C)[C@@H](O)CC[C@]4(C)C3=CC[C@]12C)C(C)C` [dehydrotumulosic acid], the IC50 in series [5] was 845 µM.
On to `Cc1cc(C(C)(C)C)c(O)c(C(C)(C)C)c1` [butylated hydroxytoluene], for which, in series [6], the radical scavenging activity was 70.52%.
As to hydrotumulosic acid, the IC50 in series [7] is recorded as 0.68 nmol/ear.
On to `O=C1O[C@H]([C@@H](O)CO)C(O)=C1O` [Vitamin C], for which the “reduction of ROS production” value in [8] is 43%.
For the compound `O=C(/C=C/c1ccc(O)c(O)c1)O[C@H](Cc1ccc(O)c(O)c1)C(=O)O` [Rosmarinic acid], the Phagocytosis was 51.00% in series [9] (12 μg/mL) and 74.35% in series [9] (25 μg/mL). Moreover, the “Viability (%)” value in series [10] came out at 57%. Also, the “MTT (% reduction)” value in [11] (12 μg/mL) was determined as 5.63%; in series [11] (25 μg/mL) it was 13.47%; in series [11] (50 μg/mL), 20.03%; in series [11] (100 μg/mL), 20.53%. Further, the “reduction of DNA damage” value in series [12] (25 μg/mL) came to 24%. In series [1] (Mus musculus, RAW264.7), this compound had an inhibition at 25 µg/mL of 73%.
Consider `Cc1c(C)c2c(c(C)c1O)CC[C@@](C)(CCC[C@H](C)CCC[C@H](C)CCCC(C)C)O2` [a-tocopherol], for which the radical scavenging activity in series [6] was 65.20%.
For Catechin, in series [12] (100 μg/ml), the “reduction of DNA damage” value is on record as 70%.
